Measured values reported in patent publication US20220031684A1, “PROPHYLACTIC EFFICACY OF SEROTONIN 4 RECEPTOR AGONISTS AGAINST STRESS” (THE TRUSTEES OF COLUMBIA UNIVERSITY IN THE CITY OF NEW YORK, priority 2019, published 2022).
Where a name gives a salt, the structure may show the parent alone.

How the values were obtained:
[1] = Chronic corticosterone (CORT) model: body weight; type: in vivo, mice; conditions: male C57BL/6NTac; Flx 18 mg/kg/day in drinking water or RS-67,333 1.5 mg/kg/day in osmotic minipumps for 3 weeks prior to CORT
Experimental: This chronic CORT elevation dysregulates the hypothalamic-pituitary-adrenal axis (HPA) in a manner similar to that observed in clinical depression. The dose and duration of CORT treatment was selected based on previous studies. CORT (35 μg/ml, equivalent to about 5 mg/kg/day) dissolved in 0.45% hydroxypropyl-o-cyclodextrin (0-CD) or vehicle (VEH) (0.45% j-CD) was available ad libitum in the drinking water in opaque bottles to protect it from light. VEH- and CORT-treated water was changed every 3 days to prevent possible degradation. Contextual Fear Conditioning (CFC): A 3-shock CFC procedure was administered as previously published. Briefly, mice were placed into context A and administered 3 2-s shocks (0.75 mA) at 180 s, 240 s or 300 s following placement into context A. Mice were removed from the context 15 s following the termination of shock (at 317 s). For context retrieval, mice were placed back into context A for 300 s. Electrophysiology: Electrophysiology was conducted as previously described. Statistical Analysis: Results from data analyses are expressed as means±SEM. Alpha was set to 0.05 for all analyses. Data were analyzed using GraphPad Prism v7.0 or v8.0. For all experiments, unless otherwise noted, one- or two-way ANOVAs with repeated-measures were applied to the data as appropriate. […] Videos were scored using ANY-maze behavior tracking software (Stoelting, Wood Dale, Ill.). […]

[2] = test system: BALB/cJRj mice; assay: Novelty suppressed feeding (NSF), acute anxiolytic-like effect; type: in vivo; conditions: male BALB/cJRj; i.p. 45 min before testing; RS67333 1.5, diazepam 1.5, fluoxetine 18 mg/kg
Experimental: (§1) RS67333 (1.5 mg/kg, i.p.), diazepam (1.5 mg/kg, i.p.), fluoxetine (18 mg/kg, i.p.) were injected 45 min before testing in the Elevated Plus Maze (EPM), the Novelty Suppressed Feeding (NSF) or the Open Field (OF) in three independent cohorts of male BALB/cJRj mice.
(§2) To ensure the selectivity of the anxiolytic-like effects of RS67333, in a new cohort of male BALB/cJRj mice, GR125487 (1.0 mg/kg, i.p.) dissolved in 0.9% NaCl solution, was injected 15 minutes before RS67333 administration (1.5 mg/kg, i.p.). EPM or NSF occurred 45 min after RS67333 administration (A-S1). Behavioral consequences of the co-administration of GR125487+RS67333 were compared to RS67333 alone, diazepam (1.5 mg/kg, i.p.) fluoxetine (18 mg/kg, i.p.) and vehicle groups (0.9% saline solution, i.p.).
(§3) For mPFC drug infusion, two bilateral cannulae (75 μm-diameter silica capillary tubing inserted in 27G stainless steel catheter) were implanted in the mPFC [stereotaxic coordinates in mm from bregma: A=+2.10, L=±0.50, V=−2.60, A, anterior; L, lateral; and V, ventral, according to (A-S10)] under anesthesia (chloral hydrate, 400 mg/kg, i.p.). […] Diazepam (1.5 mg/kg) was used as a positive control.
The NSF is a conflict test that elicits competing motivations: the drive to eat and the fear of venturing into the center of a brightly lit arena. The latency to begin eating is used as an index of anxiety/depression-like behavior, because classical anxiolytic drugs as well as chronic antidepressants decrease this measure. The NSF test was carried out during a 10 min period as previously described (A-S12). Briefly, the testing apparatus consisted of a plastic box (50×50×20 cm), the floor of which was covered with approximately 2 cm of wooden bedding. Twenty-four hours prior to behavioral testing, all food was removed from the home cage. At the time of testing, a single pellet of food (regular chow) was placed on a white paper platform positioned in the center of the box. Each animal was placed in a corner of the box, and a stopwatch was immediately started. The latency to eat (defined as the mouse sitting on its haunches and biting the pellet with the use of forepaws) was timed. Immediately afterwards, the animal was transferred to its home cage, and the amount of food consumed by the mouse in the subsequent 5 min was measured, serving as a control for change in appetite as a possible confounding factor.

[3] = test system: C57BL/6NTac mice; assay: Elevated plus maze (EPM) in CORT model; type: in vivo; conditions: male C57BL/6NTac, Flx 18 mg/kg/day or RS-67,333 1.5 mg/kg/day for 3 weeks prior to CORT
Experimental: This chronic CORT elevation dysregulates the hypothalamic-pituitary-adrenal axis (HPA) in a manner similar to that observed in clinical depression. The dose and duration of CORT treatment was selected based on previous studies. CORT (35 μg/ml, equivalent to about 5 mg/kg/day) dissolved in 0.45% hydroxypropyl-o-cyclodextrin (0-CD) or vehicle (VEH) (0.45% j-CD) was available ad libitum in the drinking water in opaque bottles to protect it from light. VEH- and CORT-treated water was changed every 3 days to prevent possible degradation. Contextual Fear Conditioning (CFC): A 3-shock CFC procedure was administered as previously published. Briefly, mice were placed into context A and administered 3 2-s shocks (0.75 mA) at 180 s, 240 s or 300 s following placement into context A. Mice were removed from the context 15 s following the termination of shock (at 317 s). For context retrieval, mice were placed back into context A for 300 s. Electrophysiology: Electrophysiology was conducted as previously described. Statistical Analysis: Results from data analyses are expressed as means±SEM. Alpha was set to 0.05 for all analyses. Data were analyzed using GraphPad Prism v7.0 or v8.0. For all experiments, unless otherwise noted, one- or two-way ANOVAs with repeated-measures were applied to the data as appropriate. Significant main effects and/or interactions were followed by Fisher's PLSD post hoc analysis or unpaired t-tests. Drugs: All drugs were prepared in physiological saline and all injections were administered intraperitoneally (i.p.) in volumes of 0.1 cc per […] body weight unless otherwise noted. Fluoxetine hydrochloride (Flx): Flx (BioTrend Chemicals AG, BG197, Zurich, Germany) was administered in the drinking water (18 mg/kg/day) for 3 weeks before the start of CORT. […] (R,S)-ketamine (K): (R,S)-ketamine (Ketaset III, Ketamine HCl injection, Fort Dodge Animal Health, Fort Dodge, Iowa) was administered in a single dose at 30 mg/kg of body weight 1 week before the start of CFC. […] PF-04995274: PF-04995274 (Sigma, Catalog No. 1331782-27-4, St. Louis, Mo.) was administered a single dose at 3 or 10 mg/kg of body weight 1 week before the start of CFC. PF-04995274 was dissolved in saline using an ultrasonic homogenizer (BioLogics, Model 3000, Manassas, Va.). Osmotic minipump implantation: ALZET osmotic minipumps (Model 2004, […], 28 days) were implanted subcutaneously under isoflurane anesthesia as previously described [S2]. Osmotic minipumps were rotated under the skin two to three times per week. Behavioral Assays: All experiments were approved by the Institutional Animal Care and Use Committee (IACUC) at the New York Psychiatric Institute (NYSPI). […] Videos were scored using ANY-maze behavior tracking software (Stoelting, Wood Dale, Ill.). […]

[4] = test system: BALB/cJRj mice; assay: Elevated plus maze (EPM), acute anxiolytic-like effect; type: in vivo; conditions: acute systemic administration; fluoxetine 18 mg/kg i.p.
Experimental: as §1, §2, §3
In a new cohort of male BALB/cJRj mice, p-CPA was administered twice daily (at 0900 and 1700 h) for 3 consecutive days. RS67333 ([…]) and diazepam ([…]) were then intra-mPFC administered 24 h after the final p-CPA administration and behavioral test (EPM) occurred 45 minutes after local infusion.
The EPM is a widely used behavioral assay for rodents and it has been validated to assess the anti-anxiety effects of pharmacological agents (A-S11). This test was performed as described by (A-S1). The maze is a plus-cross-shaped apparatus, with two open arms and two arms closed by walls linked by a central platform 50 cm above the floor. Mice were individually put in the center of the maze facing an open arm and were allowed to explore the maze during 5 min for the behavioral consequences of an acute systemic administration or mPFC infusion and during 6 min for the optogenetic experiments. The time spent in and the numbers of entries into the open arms were used as an anxiety index. All parameters were measured using a videotracker (EPM3C, Bioseb, Vitrolles, France).

**Q.** Which “CORT-induced increase in body weight” value [1] does the source give for `CNCCC(Oc1ccc(C(F)(F)F)cc1)c1ccccc1` (centres unmarked) [fluoxetine, Fluoxetine hydrochloride] here?
**A.** attenuated

**Q.** And the “latency to feed (NSF) vs vehicle” value [2]?
**A.** anxiogenic-like effect

**Q.** And the “time spent in the open arms of the EPM vs VEH+Veh” value [3]?
**A.** did not alter

**Q.** And the “entries into the open arms of the EPM vs CORT+Veh” value ([3]; listed as Flx, hydrochloride)?
**A.** significantly more entries

**Q.** What about the anxiety-like behavior [4] of the same molecule?
**A.** did not affect anxiety-like behavior
